From paper PMC5889558, “The inhibition of human lung fibroblast proliferation and differentiation by Gs-coupled receptors is not predicted by the magnitude of cAMP response” (Respiratory Research, 2018)
Blank lines part the entries; values can stand above or below the compound they belong to.

How the values were obtained:
[1] = test system: human lung fibroblasts (HLF); experiment: HLF proliferation by BrdU incorporation (DELFIA), driven by FBS or PDGF; type: cell-based; conditions: Homo sapiens, Fibroblast, inhibition of BrdU incorporation, 24 h, NC = not calculated due to incomplete curve; for EC50: mean ± SEM
Experimental: Proliferation of HLF was measured by incorporation of bromodeoxyuridine (BrdU). HLF were seeded overnight at 4000 cells/well in 96-well black ViewPlates, before being starved for 24 h in culture medium devoid of FBS. Proliferation was measured after incubation with a range of concentrations of FBS or PDGF, in DMEM supplemented with 0.1% w/v HSA, for 24 h.
For anti-remodelling assays using BrdU incorporation, cells were incubated for 24 h with a range of concentrations of test compounds in the presence of near maximal concentrations of FBS or PDGF in DMEM supplemented with 0.1% w/v HSA. Proliferation was assessed using the DELFIA BrdU incorporation assay kit following manufacturer protocol. Fluorescence was measured using a Packard EnVision plate reader. To account for the inter-assay variation in levels of proliferation in each experiment, data were normalized to the PDGF or FBS response.

[2] = test system: human lung fibroblasts (HLF); experiment: Cell viability assay, caspase-3/7 as marker of apoptosis; type: cell-based; conditions: 24 h
Experimental: Cell viability was measured using caspase-3/7 expression as a marker of apoptosis after treatment for 24 h with test compounds. HLF were seeded overnight at 6,000 cells/well in 96-well black ViewPlates, before being starved for 24 hours in culture medium devoid of FBS. Cells were incubated for 24 hours in the presence of test compounds at the top concentrations used in the proliferation assays, or in the presence of 100 nM staurosporine to induce apoptosis.
The presence of the apoptotic marker caspase-3/7 was detected by incubating cells with 8 μM CellEvent™ Caspase-3/7 Red Detection Reagent in dPBS with 5 % FBS, for 30 minutes at 37°C. […] Images were analyzed using a multi wavelength cell scoring algorithm within the MetaXpress 5.3 software, which measures cell number using stained nuclei, and percent of these cells positive for caspase-3/7 from Cy5 readouts. To account for the inter-assay variation in levels of caspase 3/7 detected in each experiment, data were normalized to the staurosporine response.
Statistical significance across treatment groups was determined by using the one-way ANOVA with Dunnett’s multiple-comparison post hoc test.

[3] = test system: human lung fibroblasts (HLF); experiment: cAMP accumulation in HLF (HitHunter or AlphaScreen); type: cell-based; conditions: Homo sapiens, Fibroblast, HLF, 2 h, mean ± SEM, NC = not calculated due to incomplete curve; for EC50: room temperature, 5 μM rolipram (excluded for PDE inhibitors), at least 3 experiments, read-out: cAMP pEC50 (converted); for Emax: percentage of the maximal forskolin response, read-out: cAMP Emax (% max)
Experimental: HLF were grown to confluency in 96-well white ViewPlates, before incubation with a range of agonist concentrations, or vehicle, for 2 h at room temperature in HBSS with 5 mM HEPES, 0.1% w/v HSA, and 5 μM rolipram. […] Rolipram was excluded when measuring cAMP levels in response to PDE inhibitors. cAMP levels were measured using either HitHunter cAMP assay or AlphaScreen competition assay following manufacturer protocol, and were assessed on either a BMG LABTEK ClarioStar or a Packard EnVision plate reader. cAMP concentrations in each well were determined using a standard curve. To account for the inter-assay variation in levels of cAMP produced in each experiment, data were normalized to the maximal forskolin response.

[4] = Agonist concentration remaining after incubation with HLF; type: in vitro ADME, human; conditions: after 24 h incubation with HLF; unpublished data
[5] = test system: human lung fibroblasts (HLF); experiment: Fibroblast to myofibroblast transdifferentiation (FMT), αSMA immunofluorescence, TGFβ-driven; type: cell-based; conditions: 48 h, TGFβ 0.3 ng/mL
Experimental: To assess the differentiation of fibroblasts to the myofibroblast phenotype, immunofluorescence was used to monitor increases in α smooth muscle actin (αSMA). HLF were seeded overnight at 1000 cells/well in 384-well black clear bottom plates, before being starved for 24 h growth medium devoid of FBS.
For anti-remodelling assays using FMT, cells were incubated for 48 h with a range of concentrations of test compounds and incubated for 48 h, at 37°C, 5% CO2 in the presence of a near maximal concentration of TGFβ (0.3 ng/mL), to promote differentiation in DMEM supplemented with 0.1% w/v HSA. Following stimulation, cells were fixed in 4% paraformaldehyde, washed 3× in PBS (with Ca^2+/Mg^2+), and incubated with permeabilising blocking buffer (dPBS (with Ca^2+/Mg^2+), 10% FBS (v/v), 0.1% Triton X-100 (v/v)) for 1 h at 37°C. Wells were then washed 3× in wash buffer (Tris Buffered Saline (TBS), 0.05% (v/v) Tween-20) and incubated with mouse anti-α SMA (1:1000 dilution in permeabilising blocking buffer) for 1 h at room temperature, with gentle shaking. Following 3× wash in wash buffer, wells were incubated with blocking buffer containing Hoechst to stain for nuclear DNA (2 μM), and FITC-conjugated Affini-pure goat […] IgG (1:1000 dilution in blocking buffer) for 30 min at 37°C. Fluorescence was then quantified on a widefield ImageXpress Micro microscope, with a Plan Fluor 20X objective, DAPI filter cube (excitation 400–418 nm, emission 435–470 nm), 50 ms exposure time for nuclei, and FITC filter cube (excitation 467–498 nm, emission 513–556 nm), 200 ms exposure time for αSMA.
To quantify increases in αSMA fluorescence, a standard Multi-Wavelength Cell Scoring algorithm was used in MetaXpress 5.3 software (Molecular Devices, California, USA). To account for the inter-assay variation in levels of αSMA expression produced in each experiment, data were normalized to the response to TGFβ.

[6] = test system: human lung fibroblasts (HLF); experiment: as above; type: cell-based; conditions: data not shown
[7] = test system: human lung fibroblasts (HLF); experiment: PDGF-mediated ERK phosphorylation (pERK imaging); type: cell-based; conditions: 30 min pre-incubation, 3 ng/mL PDGF for 10 min
Experimental: HLF were seeded overnight at 6000 cells/well in 96-well black clear bottom plates then starved for 24 h in the growth medium devoid of all additives. […] Fluorescence was then quantified on the InCell2000, using DAPI settings to visualize nuclei (0.1 s exp) and FITC settings for pERK (2 s exp). To quantify levels of pERK fluorescence, a standard Multi-Target Analysis algorithm was used in the INCell Analyzer Workstation (v3.7.1). To account for the inter-assay variation in levels of ERK phosphorylation produced in each experiment, data were normalized to the EC80 PDGF response.

[8] = EC80 PDGF, percentage of maximal proliferation observed with PDGF, read-out: Proliferation vs PDGF Emax (% max)
[9] = EC80 concentration of PDGF, read-out: Proliferation vs PDGF pEC50 (converted)
[10] = EC80 concentration of serum, read-out: Proliferation vs serum pEC50 (converted)
[11] = EC80 serum, percentage of maximal proliferation observed with serum, read-out: Proliferation vs serum Emax (% max)

original concentration of agonist remaining [4]: > 90%
Compound: CC(C)N(CCCCOCC(=O)O)c1cnc(-c2ccccc2)c(-c2ccccc2)n1 [MRE-269]
Emax [1, 8]: 85.7 ± 7.65%
EC50 [1, 9]: 0.316 µM
% cells positive for caspase-3/7, 1:10 dilution ([2]; HLF, 1:10 dilution of top conc 10 μM): 0.49 ± 0.22%
% cells positive for caspase-3/7, Top conc ([2]; HLF, top conc 10 μM, mean ± SEM, n=3): 0.49 ± 0.21%
EC50 [3]: 0.178 µM
Emax [3]: 52.9 ± 4.36%
inhibition of TGFβ-driven FMT (in words) [5]: completely inhibit FMT

original concentration of agonist remaining [4]: > 90%
Compound: CCCCC[C@H](O)CC[C@@H]1[C@H]2Cc3cccc(OCC(=O)O)c3C[C@H]2C[C@H]1O [Treprostinil]
Emax [1, 8]: 63.7 ± 6.39%
EC50 [1, 9]: 0.0295 µM
EC50 [1, 10]: 0.102 µM
Emax [1, 11]: 42.5 ± 5.36%
% cells positive for caspase-3/7, 1:10 dilution ([2]; human, 1 μM): 0.92 ± 0.25%
% cells positive for caspase-3/7, Top conc ([2]; human, 10 μM): 0.76 ± 0.06%
EC50 [3]: 0.151 µM
Emax [3]: 101 ± 0.58%

Compound: Transforming growth factor β [TGFβ]
EC50 for promoting FMT [6]: 0.07 ± 0.01 ng/mL

Compound: C=C[C@@]1(C)CC(=O)[C@]2(O)[C@@]3(C)[C@@H](O)CCC(C)(C)[C@@H]3[C@H](O)[C@H](OC(C)=O)[C@@]2(C)O1 [Forskolin]
Emax [1, 8]: 90.8 ± 9.12%
EC50 [1, 9]: 1.05 µM
EC50 [1, 10]: 5.25 µM
Emax [1, 11]: 74 ± 6.7%
% cells positive for caspase-3/7, 1:10 dilution ([2]; human, 3 μM): 0.61 ± 0.15%
% cells positive for caspase-3/7, Top conc ([2]; human, 30 μM): 1.26 ± 0.35%
inhibition of TGFβ-driven FMT (in words) [5]: completely inhibit FMT
inhibition of PDGF-mediated ERK phosphorylation (in words) [7]: inhibited PDGF-mediated ERK phosphorylation
